*1 amine or outer side, *2 acyl side, *3 side chain or, on linkers, in order; H or OH if unused. Where a SMILES comes first, the peptide text is derived from it. [ ]: non-standard residue; d: D form. Trp(4-Cl)(βS-Me) = C[C@@H](c1c[nH]c2cccc(Cl)c12)[C@H](N)C(=O)O; Bip(4'-COOH) = N[C@@H](Cc1ccc(-c2ccc(C(=O)O)cc2)cc1)C(=O)O; Phe(3-CH2NH2) = O=C([C@H](Cc1cccc(CN[*:3])c1)N[*:1])[*:2]; Phe(4-COOH) = N[C@@H](Cc1ccc(C(=O)O)cc1)C(=O)O; Pro(4R-NH2) = N[C@H]1CN[C@H](C(=O)O)C1; hTyr = N[C@@H](CCc1ccc(O)cc1)C(=O)O; dDab = NCC[C@@H](N)C(=O)O; dNMeA = CN[C@H](C)C(=O)O
molecular target: T1, Recombinant human IL-1β (Homo sapiens, UniProt P01584); experiment: IL-6 assay in MRC5 cells: inhibition of IL-1β induced IL-6 secretion (AlphaLISA); assay type: cell-based; details: inhibition of IL-1β induced IL-6 secretion in MRC5 cells; IL-1β pre-incubated 1 hour with compound; read-out: MRC5 IC50
T1 construct: purchased BioLegend 579404
Procedure, shortened: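 IL-1β at 2×EC80 in seeding medium (EMEM, 0.025% BSA) preincubated 1 h at ambient temperature with compound, then 3000 MRC5 cells/well added and incubated overnight at 37 °C, 5% CO2. IL-6 in conditioned medium quantified by AlphaLISA; IC50 from 4-parameter logistic fit.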

T1 sequence (P01584 117-269): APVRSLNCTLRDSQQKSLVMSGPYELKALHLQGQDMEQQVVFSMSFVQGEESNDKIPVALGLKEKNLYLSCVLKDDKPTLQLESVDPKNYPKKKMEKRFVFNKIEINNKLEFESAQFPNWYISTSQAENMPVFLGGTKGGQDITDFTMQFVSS

| SMILES | IC50 [nM] |
| --- | --- |
| CC(C)C[C@@H]1NC(=O)[C@H](CCCCN)NC(=O)[C@H](Cc2ccc(-c3ccc(C(=O)O)cc3)cc2)NC(=O)CNC(=O)[C@@H](C)N(C)C(=O)[C@H](CC(=O)O)NC(=O)[C@H]([C@@H](C)c2c[nH]c3cccc(Cl)c23)NC(=O)[C@@H]2C[C@@H](N)CN2C(=O)CNC(=O)[C@H](Cc2ccc(C(=O)O)cc2)NC(=O)[C@H](Cc2c[nH]c3ccccc23)NC(=O)[C@H](Cc2ccc(-c3ccc(C(=O)O)cc3)cc2)NC(=O)[C@H](CCc2ccc(O)cc2)NC(=O)[C@@H](CO)NC1=O [Example 44] (cyclo([Bip(4'-COOH)]W[Phe(4-COOH)]G[Pro(4R-NH2)][Trp(4-Cl)(βS-Me)]D[dNMeA]G[Bip(4'-COOH)]KL[dS][hTyr])) | 0.132 |
| C[C@@H]1C(=O)NCC(=O)N[C@@H](Cc2ccc(-c3ccc(C(=O)O)cc3)cc2)C(=O)N[C@@H](CCCCN)C(=O)N[C@@H](CO)C(=O)N[C@H](C)C(=O)N[C@@H](CCc2ccc(O)cc2)C(=O)N[C@@H](Cc2ccc(-c3ccc(C(=O)O)cc3)cc2)C(=O)N[C@@H](Cc2c[nH]c3ccccc23)C(=O)N[C@@H](Cc2ccc(C(=O)O)cc2)C(=O)NCC(=O)N2C[C@H](N)C[C@H]2C(=O)N[C@@H]([C@@H](C)c2c[nH]c3cccc(Cl)c23)C(=O)N[C@@H](CC(=O)O)C(=O)N1C [Example 45] (cyclo([Bip(4'-COOH)]W[Phe(4-COOH)]G[Pro(4R-NH2)][Trp(4-Cl)(βS-Me)]D[dNMeA]G[Bip(4'-COOH)]KS[dA][hTyr])) | 0.174 |
| C[C@@H]1C(=O)NCC(=O)N[C@@H](Cc2ccc(-c3ccc(C(=O)O)cc3)cc2)C(=O)N[C@@H](CCCCN)C(=O)N[C@@H](CO)C(=O)N[C@H](CCN)C(=O)N[C@@H](CCc2ccc(O)cc2)C(=O)N[C@@H](Cc2ccc(-c3ccc(C(=O)O)cc3)cc2)C(=O)N[C@@H](Cc2c[nH]c3ccccc23)C(=O)N[C@@H](Cc2ccc(C(=O)O)cc2)C(=O)NCC(=O)N2C[C@H](N)C[C@H]2C(=O)N[C@@H]([C@@H](C)c2c[nH]c3cccc(Cl)c23)C(=O)N[C@@H](CC(=O)O)C(=O)N1C [Example 46] (cyclo([Bip(4'-COOH)]W[Phe(4-COOH)]G[Pro(4R-NH2)][Trp(4-Cl)(βS-Me)]D[dNMeA]G[Bip(4'-COOH)]KS[dDab][hTyr])) | 0.134 |
| C[C@@H]1C(=O)NCC(=O)N[C@@H](Cc2ccc(-c3ccc(C(=O)O)cc3)cc2)C(=O)N[C@@H](CCCCN)C(=O)N[C@@H](CO)C(=O)N[C@H](CO)C(=O)N[C@@H](CCc2ccc(O)cc2)C(=O)N[C@@H](Cc2ccc(-c3ccc(C(=O)O)cc3)cc2)C(=O)N[C@@H](Cc2c[nH]c3ccccc23)C(=O)N[C@@H](Cc2ccc(C(=O)O)cc2)C(=O)NCC(=O)N2C[C@H](N)C[C@H]2C(=O)N[C@@H]([C@@H](C)c2c[nH]c3cccc(Cl)c23)C(=O)N[C@@H](CC(=O)O)C(=O)N1C [Example 47] (cyclo([Bip(4'-COOH)]W[Phe(4-COOH)]G[Pro(4R-NH2)][Trp(4-Cl)(βS-Me)]D[dNMeA]G[Bip(4'-COOH)]KS[dS][hTyr])) | 0.123 |
| C[C@@H]1C(=O)NCC(=O)N[C@@H](Cc2ccc(-c3ccc(C(=O)O)cc3)cc2)C(=O)N[C@@H](Cc2cccc(CN)c2)C(=O)N[C@@H](CO)C(=O)N[C@H](C)C(=O)N[C@@H](CCc2ccc(O)cc2)C(=O)N[C@@H](Cc2ccc(-c3ccc(C(=O)O)cc3)cc2)C(=O)N[C@@H](Cc2c[nH]c3ccccc23)C(=O)N[C@@H](Cc2ccc(C(=O)O)cc2)C(=O)NCC(=O)N2C[C@H](N)C[C@H]2C(=O)N[C@@H]([C@@H](C)c2c[nH]c3cccc(Cl)c23)C(=O)N[C@@H](CC(=O)O)C(=O)N1C [Example 48] (cyclo([Bip(4'-COOH)]W[Phe(4-COOH)]G[Pro(4R-NH2)][Trp(4-Cl)(βS-Me)]D[dNMeA]G[Bip(4'-COOH)][Phe(3-CH2NH2)]S[dA][hTyr])) | 0.041 |

From patent publication US20230406885A1, “CYCLIC PEPTIDES FOR TRAPPING INTERLEUKIN-1 BETA” (MERCK SHARP & DOHME LLC, priority 2022, published 2023)
